Assay results as given in patent US20260201283A1, “SOLVENT COMPOSITION” (Dow Global Technologies LLC, priority 2022, published 2026).
Read-outs that look alike come from different tables or passages of the source.

Key:
[1] = at 25° C., literature values as published in Wikipedia, cited from earlier work
[2] = Solvency of solvent compositions for Monomer A and Monomer B (height of solid residue); assay type: physicochemical; settings: for concentration of monomer in the final solution: in each of the samples with solvency of 100% (NMF, IE1, IE2, IE3, IE4)
Method: For every sample, the height of the monomer mixture in the vial was 4 mm. The vials were placed in an oven at 54° C. without agitation for 13 hours. The vials returned to room temperature and were photographed again with the PICA-II instrument. The height of the solid residue was observed. It is considered that the residue (if present) was undissolved Monomer A, undissolved Monomer B, or a mixture thereof. The solvency % of each solvent composition was determined as follows: […]

SMILES	concentration of monomer in the final solution [2]	Water Solubility [1]	other results
CCCCOCCOCCO [DBE, diethylene glycol n-butyl ether]			Water Solubility ([1]; in words): soluble
O=C1OC(=O)c2cc(Oc3ccc4c(c3)C(=O)OC4=O)ccc21 [Monomer A]	5 % by weight based on the weight of the solvent composition		
Nc1ccc(-c2ccc(N)cc2C(F)(F)F)c(C(F)(F)F)c1 [Monomer B]	5 % by weight based on the weight of the solvent composition		
CNC=O [NMF, n-methylformamide, reference compound]			Solvency (%) ([2]; 0.125 g Monomer A + 0.125 g Monomer B in 2.5 g solvent, 54° C. without agitation for 13 hours, then room temperature): 100%; Quality as solvent for Monomer A and Monomer B ([2]; judgement in words based on Table 4): good solvent
OCCOc1ccccc1 [POE, 2-phenoxyethanol]		26 g/kg	
NC(N)=O [Urea]		545 mg/mL	
